Results from patent US20250197372A1 (priority 2020, published 2025).

Tests used:
[1] = molecular target: T1, recombinant alpha-glucosidase I (human full-length glucosidase I, Glu 1) (Homo sapiens, UniProt Q13724); test: Alpha-glucosidase I assay (Amplex Red glucose detection, synthetic trisaccharide substrate); assay type: biochemical; conditions: Glucosidase 1; read-out: Glu 1 IC50
T1 construct: 6-His (C); made in house; host or cells: HEK-293T cells transduced with BacMam virus (virus raised in Sf9)
T1 sequence (Q13724 1-837): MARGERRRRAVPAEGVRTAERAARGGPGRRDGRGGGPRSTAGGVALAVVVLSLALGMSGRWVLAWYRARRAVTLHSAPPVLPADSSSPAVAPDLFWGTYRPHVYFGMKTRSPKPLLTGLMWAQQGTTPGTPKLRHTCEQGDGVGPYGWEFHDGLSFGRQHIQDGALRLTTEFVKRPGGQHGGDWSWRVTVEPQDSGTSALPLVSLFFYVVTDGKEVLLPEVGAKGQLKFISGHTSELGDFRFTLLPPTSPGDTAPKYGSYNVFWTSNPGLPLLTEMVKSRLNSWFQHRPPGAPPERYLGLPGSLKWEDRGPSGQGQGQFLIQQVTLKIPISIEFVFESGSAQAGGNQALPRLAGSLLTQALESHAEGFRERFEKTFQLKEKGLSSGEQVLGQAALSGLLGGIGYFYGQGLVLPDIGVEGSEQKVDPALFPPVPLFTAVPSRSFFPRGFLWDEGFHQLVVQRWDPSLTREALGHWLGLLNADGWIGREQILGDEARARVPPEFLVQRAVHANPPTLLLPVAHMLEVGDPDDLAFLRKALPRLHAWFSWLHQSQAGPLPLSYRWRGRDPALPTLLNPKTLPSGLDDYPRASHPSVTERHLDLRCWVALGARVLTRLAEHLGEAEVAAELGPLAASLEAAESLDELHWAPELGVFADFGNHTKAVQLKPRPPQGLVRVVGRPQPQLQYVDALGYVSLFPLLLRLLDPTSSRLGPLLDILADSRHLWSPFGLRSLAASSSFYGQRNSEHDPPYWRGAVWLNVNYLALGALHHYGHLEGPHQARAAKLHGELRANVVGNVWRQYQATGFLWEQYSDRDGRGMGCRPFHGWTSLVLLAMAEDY
Outline: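 Human full-length glucosidase I, His-tagged, […] and Ni-purified. Enzyme preincubated with compound dilutions 60 min at 37° C, then synthetic trisaccharide substrate 90 min at 37° C; stopped with 1.5M Tris pH 8.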

[2] = molecular target: rat maltase (partially purified alpha-glucosidase from intestinal rat powder); test: Intestinal alpha-glucosidase assay, maltose substrate (Glucose GO Kit); assay type: biochemical
Outline: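 Partially purified alpha-glucosidase from rat intestinal powder was preincubated 60 min at 37 °C with serial compound dilutions, then given maltose or sucrose and incubated 30 min at 37 °C.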

SMILES	IC50 [1]	IC50 [2]
O=[N+]([O-])c1cc(CN2CCCO2)ccc1NCCc1ccc(CCN2C[C@H](O)[C@@H](O)[C@H](O)[C@H]2CO)cc1 [Compound 1108, (2R,3R,4R,5S)-2-(hydroxymethyl)-1-(2-{4-[2-({2-nitro-4-[(1,2-oxazolidin-2-yl)methyl]phenyl}amino)ethyl]phenyl}ethyl)piperidine-3,4,5-triol]	247 nM	98 nM
N#Cc1cc(NCc2ccc(CN3C[C@H](O)[C@@H](O)[C@H](O)[C@H]3CO)cc2)cc(-c2cccnn2)c1 [Compound 1064, 3-(pyridazin-3-yl)-5-{[(4-{[(2R,3R,4R,5S)-3,4,5-trihydroxy-2-(hydroxymethyl)piperidin-1-yl]methyl}phenyl)methyl]amino}-benzonitrile]	12 nM	2 nM
COc1cc(NCCc2ccc(CCN3C[C@H](O)[C@@H](O)[C@H](O)[C@H]3CO)cc2)cc(-c2noc(C3CCC3)n2)c1 [Compound 1120, (2R,3R,4R,5S)-1-{2-[4-(2-{[3-(5-cyclobutyl-1,2,4-oxadiazol-3-yl)-5-methoxyphenyl]amino}ethyl)phenyl]ethyl}-2-(hydroxymethyl)piperidine-3,4,5-triol]	1130 nM	186 nM
CC(C)c1cc(CCNc2ccc(N=[N+]=[N-])cc2[N+](=O)[O-])cc(CCN2C[C@H](O)[C@@H](O)[C@H](O)[C@H]2CO)c1 [Compound 1077, (2R,3R,4R,5S)-1-[2-(3-{2-[(4-azido-2-nitrophenyl)amino]ethyl}-5-(propan-2-yl)phenyl)ethyl]-2-(hydroxymethyl)piperidine-3,4,5-triol]	697 nM	6650 nM
Cc1cc(CN2CCOCC2)cc(NCCCCCCN2C[C@H](O)[C@@H](O)[C@H](O)[C@H]2CO)c1 [Compound 1003, (2R,3R,4R,5S)-2-(hydroxymethyl)-1-[6-({3-methyl-5-[(morpholin-4-yl)methyl]phenyl}amino)hexyl]piperidine-3,4,5-triol]	366 nM	21 nM
O=[N+]([O-])c1cc(CN2CCCO2)ccc1NCc1cccc(CN2C[C@H](O)[C@@H](O)[C@H](O)[C@H]2CO)c1 [Compound 1086]	132 nM	124 nM
CN(Cc1ccc(CN2C[C@H](O)[C@@H](O)[C@H](O)[C@H]2CO)cc1)c1cc(-c2cccnn2)cc(C2CC2)c1 [Compound 1001, (2R,3R,4R,5S)-1-{[4-({[3-cyclopropyl-5-(pyridazin-3-yl)phenyl](methyl)amino}methyl)phenyl]methyl}-2-(hydroxymethyl)piperidine-3,4,5-triol]	13 nM	< 1 nM
OC[C@@H]1[C@@H](O)[C@H](O)[C@@H](O)CN1Cc1cccc(CNc2ccc(C3=COCCO3)cc2)c1 [Compound 1066, (2R,3R,4R,5S)-1-{[3-({[4-(5,6-dihydro-1,4-dioxin-2-yl)phenyl]amino}methyl)phenyl]methyl}-2-(hydroxymethyl)piperidine-3,4,5-triol]	69 nM	41 nM
OC[C@@H]1[C@@H](O)[C@H](O)[C@@H](O)CN1CCc1cn(CCNc2ccccc2)c2ccccc12 [Compound 1076, (2R,3R,4R,5S)-2-(hydroxymethyl)-1-(2-{1-[2-(phenylamino)ethyl]-1H-indol-3-yl}ethyl)piperidine-3,4,5-triol]	1310 nM	250 nM
O=[N+]([O-])c1cc(-c2ncccn2)ccc1NCc1cccc(CN2C[C@H](O)[C@@H](O)[C@H](O)[C@H]2CO)c1 [Compound 1090, (2R,3R,4R,5S)-2-(hydroxymethyl)-1-{[3-({[2-nitro-4-(pyrimidin-2-yl)phenyl]amino}methyl)phenyl]methyl}piperidine-3,4,5-triol]	7 nM	34 nM
CS(=O)(=O)c1cc(NCc2ccc(CN3C[C@H](O)[C@@H](O)[C@H](O)[C@H]3CO)cc2)cc(N2CCOCC2)c1 [Compound 1054, (2R,3R,4R,5S)-2-(hydroxymethyl)-1-{[4-({[3-methanesulfonyl-5-(morpholin-4-yl)phenyl]amino}methyl)phenyl]methyl}piperidine-3,4,5-triol]	102 nM	57 nM
OC[C@@H]1[C@@H](O)[C@H](O)[C@@H](O)CN1Cc1ccc(CNc2ccc(C3=COCCO3)cc2)cc1 [Compound 1093, (2R,3R,4R,5S)-1-{[4-({[4-(5,6-dihydro-1,4-dioxin-2-yl)phenyl]amino}methyl)phenyl]methyl}-2-(hydroxymethyl)piperidine-3,4,5-triol]	12 nM	2 nM
OC[C@@H]1[C@@H](O)[C@H](O)[C@@H](O)CN1Cc1ccc(CNc2ccc(-c3ncccn3)cc2)cc1 [Compound 1096, (2R,3R,4R,5S)-2-(hydroxymethyl)-1-{[4-({[4-(pyrimidin-2-yl)phenyl]amino}methyl)phenyl]methyl}piperidine-3,4,5-triol]	15 nM	11 nM
N#Cc1cc(NCc2cccc(CN3C[C@H](O)[C@@H](O)[C@H](O)[C@H]3CO)c2)cc(-c2cccnn2)c1 [Compound 1046, 3-(pyridazin-3-yl)-5-{[(3-{[(2R,3R,4R,5S)-3,4,5-trihydroxy-2-(hydroxymethyl)piperidin-1-yl]methyl}phenyl)methyl]amino}benzonitrile]	17 nM	6 nM
N#Cc1cc(NCc2cccc(CN3C[C@H](O)[C@@H](O)[C@H](O)[C@H]3CO)c2)cc(-c2ncccn2)c1 [Compound 1047, 3-(pyrimidin-2-yl)-5-{[(3-{[(2R,3R,4R,5S)-3,4,5-trihydroxy-2-(hydroxymethyl)piperidin-1-yl]methyl}phenyl)methyl]amino}benzonitrile]	13 nM	< 1 nM
O=[N+]([O-])c1cc(-c2cccnn2)ccc1NCCc1ccc(CCN2C[C@H](O)[C@@H](O)[C@H](O)[C@H]2CO)cc1 [Compound 1109, (2R,3R,4R,5S)-2-(hydroxymethyl)-1-{2-[4-(2-{[2-nitro-4-(pyridazin-3-yl)phenyl]amino}ethyl)phenyl]ethyl}piperidine-3,4,5-triol]	6 nM	1 nM
OC[C@@H]1[C@@H](O)[C@H](O)[C@@H](O)CN1Cc1ccc(CNc2ccc(-c3ccc[nH]3)cc2)cc1 [Compound 1094, (2R,3R,4R,5S)-2-(hydroxymethyl)-1-{[4-({[4-(1H-pyrrol-2-yl)phenyl]amino}methyl)phenyl]methyl}piperidine-3,4,5-triol]	28 nM	19 nM
O=[N+]([O-])c1cc(-c2ccncc2)ccc1NCCc1ccc(CCN2C[C@H](O)[C@@H](O)[C@H](O)[C@H]2CO)cc1 [Compound 1110, (2R,3R,4R,5S)-2-(hydroxymethyl)-1-{2-[4-(2-{[2-nitro-4-(pyridin-4-yl)phenyl]amino}ethyl)phenyl]ethyl}piperidine-3,4,5-triol]	< 1 nM	< 1 nM
OC[C@@H]1[C@@H](O)[C@H](O)[C@@H](O)CN1CCc1ccc(CCNc2cc(Cl)cc(-c3noc(C4CCC4)n3)c2)cc1 [Compound 1122, (2R,3R,4R,5S)-1-{2-[4-(2-{[3-chloro-5-(5-cyclobutyl-1,2,4-oxadiazol-3-yl)phenyl]amino}ethyl)phenyl]ethyl}-2-(hydroxymethyl)piperidine-3,4,5-triol]	1160 nM	717 nM
O=[N+]([O-])c1cc(C2=COCCO2)ccc1NCc1cccc(CN2C[C@H](O)[C@@H](O)[C@H](O)[C@H]2CO)c1 [Compound 1087, (2R,3R,4R,5S)-1-{[3-({[4-(5,6-dihydro-1,4-dioxin-2-yl)-2-nitro-phenyl]amino}methyl)phenyl]methyl}-2-(hydroxymethyl)piperidine-3,4,5-triol]	< 1 nM	4 nM
O=[N+]([O-])c1cc(C2=COCCO2)ccc1NCc1ccc(CN2C[C@H](O)[C@@H](O)[C@H](O)[C@H]2CO)cc1 [Compound 1099, (2R,3R,4R,5S)-1-{[4-({[4-(5,6-dihydro-1,4-dioxin-2-yl)-2-nitrophenyl]amino}methyl)phenyl]methyl}-2-(hydroxymethyl)piperidine-3,4,5-triol]	< 1 nM	< 1 nM
Cc1cc(NCc2ccc(CN3C[C@H](O)[C@@H](O)[C@H](O)[C@H]3CO)cc2)cc(N2CCOCC2)c1 [Compound 1048, (2R,3R,4R,5S)-2-(hydroxymethyl)-1-{[4-({[3-methyl-5-(morpholin-4-yl)phenyl]amino}methyl)phenyl]methyl}piperidine-3,4,5-triol]	145 nM	13 nM
